In US20250011285A1, “CYP11A1 INHIBITORS” (ORION CORPORATION, priority 2021, published 2025):

These compounds were tested against T1, CYP11A1 (Homo sapiens, UniProt P05108) (assay: CYP11A1 inhibition, isocaproic acid release assay (IARA) in H295R cells). Conditions: human H295R adrenocortical carcinoma cells treated three days, 3 nM [24,25-3H]-labelled cholesterol, 1% DMSO; read-out: IC50 on CYP11A1 inhibition (Group).
T1 construct: human H295R adrenocortical carcinoma cell line was used as source of enzyme; endogenous in cells; host or cells: H295R human adrenocortical carcinoma cells
T1 sequence (P05108 40-521): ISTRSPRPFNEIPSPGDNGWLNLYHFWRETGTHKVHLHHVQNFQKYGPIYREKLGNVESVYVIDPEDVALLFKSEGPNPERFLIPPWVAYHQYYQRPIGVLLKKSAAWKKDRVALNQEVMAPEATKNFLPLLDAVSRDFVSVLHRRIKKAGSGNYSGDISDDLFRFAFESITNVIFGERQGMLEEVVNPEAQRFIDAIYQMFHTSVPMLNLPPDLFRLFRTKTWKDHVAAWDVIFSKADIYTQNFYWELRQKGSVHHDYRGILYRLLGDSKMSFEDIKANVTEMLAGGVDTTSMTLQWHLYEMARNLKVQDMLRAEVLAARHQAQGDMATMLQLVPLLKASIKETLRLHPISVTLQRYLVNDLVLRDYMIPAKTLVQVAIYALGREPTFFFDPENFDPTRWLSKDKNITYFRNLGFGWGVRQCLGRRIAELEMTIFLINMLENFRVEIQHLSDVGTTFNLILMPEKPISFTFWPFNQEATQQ
Type: cell-based
Procedure: The ability of the test compounds to inhibit conversion of cholesterol to pregnenolone and isocaproic acid was measured by modification of isocaproic acid release assay (IARA) described by Ruangwises et al. (Biology of Reproduction 1991; 45(1):143-50) except that human H295R adrenocortical carcinoma cell line was used as source of enzyme and extraction was done with dextran-coated charcoal suspension (Isomaa, V. et al., Endocrinology 1982; 111(3):833-843). […] To determine the half maximal inhibitory concentration (IC50) of the test compounds on CYP11A1 inhibition, the cells were treated for three days with increasing concentrations of the test compounds in the presence of 3 nM [24,25-3H]-labelled cholesterol (American Radiolabelled Chemicals).
The final DMSO concentration was 1%. Cell culture medium was extracted with dextran-coated charcoal suspension and the radiolabelled isocaproic acid was determined by mixing 100 μl of supernatant fraction in 200 μl of scintillation fluid (OptiPhase SuperMix, Perkin Elmer). Radioactivity was measured using a Microbeta scintillation counter (1450 MicroBeta Trilux, Wallac). All the test compounds were studied at 10 concentrations in duplicates.

Compound	IC50 [µM]
COC(=O)c1ccc(COc2ccc(CN3Cc4ccccc4C3)cc2OC)cc1 [Compound 1, Methyl 4-((4-(isoindolin-2-ylmethyl)-2-methoxyphenoxy)methyl) benzoate]	0.351 to 1.5
COC(=O)c1ccc(COc2ccc(CN3Cc4ccccc4C3)cc2)cc1 [Compound 2, Methyl 4-((4-(isoindolin-2-ylmethyl)phenoxy)methyl)benzoate]	0.351 to 1.5
COc1cc(CN2Cc3ccccc3C2)ccc1OCc1ccc(C(=O)N(C)C)cc1 [Compound 3, 4-((4-(Isoindolin-2-ylmethyl)-2-methoxyphenoxy)methyl)-N,N-dimethyl-benzamide]	< 0.15
CN(C)C(=O)c1ccc(COc2ccc(CN3Cc4ccccc4C3)cc2Cl)cc1 [Compound 4, 4-((2-Chloro-4-(isoindolin-2-ylmethyl)phenoxy)methyl)-N,N-dimethyl-benzamide]	0.151 to 0.35
CN(C)C(=O)c1ccc(COc2ccc(CN3Cc4ccccc4C3)cc2O)cc1 [Compound 5, 4-((2-Hydroxy-4-(isoindolin-2-ylmethyl)phenoxy)methyl)-N,N-dimethyl-benzamide]	0.151 to 0.35
CN(C)C(=O)c1ccc(COc2ccc(CN3Cc4ccccc4C3)cc2C#N)cc1 [Compound 6, 4-((2-Cyano-4-(isoindolin-2-ylmethyl)phenoxy)methyl)-N,N-dimethylbenzamide]	< 0.15
COC(=O)c1cc(CN2Cc3ccccc3C2)ccc1OCc1ccc(C(=O)N(C)C)cc1 [Compound 7, Methyl 2-((4-(dimethylcarbamoyl)benzyl)oxy)-5-(isoindolin-2-ylmethyl)-benzoate]	0.151 to 0.35
CCOc1cc(CN2Cc3ccccc3C2)ccc1OCc1ccc(C(=O)N(C)C)cc1 [Compound 8, 4-((2-Ethoxy-4-(isoindolin-2-ylmethyl)phenoxy)methyl)-N,N-dimethyl-benzamide]	0.151 to 0.35
COC(=O)/C=C/c1ccc(COc2ccc(CN3Cc4ccccc4C3)cc2OC)cc1 [Compound 9, Methyl (E)-3-(4-((4-(isoindolin-2-ylmethyl)-2-methoxyphenoxy)methyl)phenyl)acrylate]	0.351 to 1.5
COCc1cc(CN2Cc3ccccc3C2)ccc1OCc1ccc(C(=O)N(C)C)cc1 [Compound 10, 4-((4-(Isoindolin-2-ylmethyl)-2-(methoxymethyl)phenoxy)methyl)-N,N-di-methylbenzamide]	0.151 to 0.35
CN(C)C(=O)c1ccc(COc2ccc(CN3Cc4ccccc4C3)cc2OCC(F)(F)F)cc1 [Compound 11, 4-((4-(Isoindolin-2-ylmethyl)-2-(2,2,2-trifluoroethoxy)phenoxy)methyl)-N,N-dimethylbenzamide]	0.151 to 0.35
COc1cc(CN2Cc3ccccc3C2)ccc1OCc1ccc(S(C)(=O)=O)cc1 [Compound 12, 2-(3-Methoxy-4-((4-(methylsulfonyl)benzyl)oxy)benzyl)isoindoline]	< 0.15
COCCNS(=O)(=O)c1ccc(COc2ccc(CN3Cc4ccccc4C3)cc2OC)cc1 [Compound 13, 4-((4-(Isoindolin-2-ylmethyl)-2-methoxyphenoxy)methyl)-N-(2-methoxyethyl)-benzenesulfonamide]	< 0.15
CN(C)C(=O)c1ccc(COc2ccc(CN3Cc4ccccc4C3)cc2OCC(N)=O)cc1 [Compound 14, 4-((2-(2-Amino-2-oxoethoxy)-4-(isoindolin-2-ylmethyl)phenoxy)methyl)-N,N-dimethylbenzamide]	< 0.15
C=CCc1cc(CN2Cc3ccccc3C2)ccc1OCc1ccc(C(=O)N(C)C)cc1 [Compound 15, 4-((2-Allyl-4-(isoindolin-2-ylmethyl)phenoxy)methyl)-N,N-dimethylbenzamide]	0.151 to 0.35
CS(=O)(=O)c1ccc(COc2ccc(CN3Cc4ccccc4C3)cc2C#N)cc1 [Compound 16, 5-(Isoindolin-2-ylmethyl)-2-((4-(methylsulfonyl)benzyl)oxy)benzonitrile]	0.151 to 0.35
CN(C)C(=O)c1cc(CN2Cc3ccccc3C2)ccc1OCc1ccc(S(C)(=O)=O)cc1 [Compound 17, 5-(Isoindolin-2-ylmethyl)-N,N-dimethyl-2-((4-(methylsulfonyl)benzyl)oxy)-benzamide]	0.351 to 1.5
COCc1cc(CN2Cc3ccccc3C2)ccc1OCc1ccc(S(C)(=O)=O)cc1 [Compound 18, 2-(3-(Methoxymethyl)-4-((4-(methylsulfonyl)benzyl)oxy)benzyl)isoindoline]	0.151 to 0.35

Compound	IC50 [µM]
CS(=O)(=O)N1CCC(COc2ccc(CN3Cc4ccccc4C3)cc2C#N)CC1 [Compound 19, 5-(Isoindolin-2-ylmethyl)-2-((1-(methylsulfonyl)piperidin-4-yl)methoxy)-benzonitrile]	< 0.15
COCCS(=O)(=O)c1ccc(COc2ccc(CN3Cc4ccccc4C3)cc2COC)cc1 [Compound 20, 2-(4-((4-((2-Methoxyethyl)sulfonyl)benzyl)oxy)-3-(methoxymethyl)benzyl)-isoindoline]	< 0.15
COc1c(OCc2ccc(S(C)(=O)=O)cc2)ccc(CN2Cc3ccccc3C2)c1F [Compound 21, 2-(2-Fluoro-3-methoxy-4-((4-(methylsulfonyl)benzyl)oxy)benzyl)isoindoline]	< 0.15
COCc1cc(CN2Cc3ccccc3C2)ccc1OCC1CCN(S(C)(=O)=O)CC1 [Compound 22, 2-(3-(Methoxymethyl)-4-((1-(methylsulfonyl)piperidin-4-yl)methoxy)benzyl)-isoindoline]	< 0.15
COc1c(OCC2CCN(C(=O)NC(C)C)CC2)ccc(CN2Cc3ccccc3C2)c1[N+](=O)[O-] [Compound 23, 4-((4-(Isoindolin-2-ylmethyl)-2-methoxy-3-nitrophenoxy)methyl)-N-isopropyl-piperidine-1-carboxamide]	0.351 to 1.5
CN(C)C(=O)c1ccc(COc2ccc(CN3Cc4ccccc4C3)c(F)c2)cc1 [Compound 24, 4-((3-Fluoro-4-(isoindolin-2-ylmethyl)phenoxy)methyl)-N,N-dimethylbenzamide]	0.351 to 1.5
CN(C)C(=O)c1ccc(COc2cc(F)c(CN3Cc4ccccc4C3)c(F)c2)cc1 [Compound 25, 4-((3,5-Difluoro-4-(isoindolin-2-ylmethyl)phenoxy)methyl)-N,N-dimethyl-benzamide]	0.151 to 0.35
CN(C)C(=O)c1ccc(COc2cc(F)c(CN3Cc4ccccc4C3)cc2F)cc1 [Compound 26, 4-((2,5-Difluoro-4-(isoindolin-2-ylmethyl)phenoxy)methyl)-N,N-dimethyl-benzamide]	< 0.15
CN(C)C(=O)c1ccc(COc2ccc(CN3Cc4ccccc4C3)c(F)c2F)cc1 [Compound 27, 4-((2,3-Difluoro-4-(isoindolin-2-ylmethyl)phenoxy)methyl)-N,N-dimethyl-benzamide]	0.351 to 1.5
COc1cc(CN2Cc3ccccc3C2)cc(F)c1OCc1ccc(C(=O)N(C)C)cc1 [Compound 28, 4-((2-Fluoro-4-(isoindolin-2-ylmethyl)-6-methoxyphenoxy)methyl)-N,N-di-methylbenzamide]	0.351 to 1.5
CN(C)C(=O)c1ccc(COc2ccc(CN3Cc4ccccc4C3)cc2OC(F)(F)F)cc1 [Compound 29, 4-((4-(Isoindolin-2-ylmethyl)-2-(trifluoromethoxy)phenoxy)methyl)-N,N-dimethylbenzamide]	0.351 to 1.5
CN(C)C(=O)c1ccc(COc2ccc(CN3Cc4ccccc4C3=O)cc2OC(F)(F)F)cc1 [Compound 30, N,N-Dimethyl-4-((4-((1-oxoisoindolin-2-yl)methyl)-2-(trifluoromethoxy)-phenoxy)methyl)benzamide]	0.351 to 1.5
COc1cc(OCc2ccc(C(=O)N(C)C)cc2)ccc1CN1Cc2ccccc2C1 [Compound 31, 4-((4-(Isoindolin-2-ylmethyl)-3-methoxyphenoxy)methyl)-N,N-dimethyl-benzamide]	0.351 to 1.5
COc1cc(CN2Cc3ccc(S(C)(=O)=O)cc3C2)ccc1OCc1ccc(C(=O)N(C)C)cc1 [Compound 32, 4-((2-Methoxy-4-((5-(methylsulfonyl)isoindolin-2-yl)methyl)phenoxy)methyl)-N,N-dimethylbenzamide]	0.351 to 1.5
CS(=N)(=O)c1ccc(COc2ccc(CN3Cc4ccccc4C3)cc2C#N)cc1 (centres unmarked) [Compound 33, 5-(isoindolin-2-ylmethyl)-2-((4-(S-methylsulfonimidoyl)benzyl)oxy)benzonitrile]	< 0.15
COc1cc(CN2Cc3ccc(SC)cc3C2)ccc1OCc1ccc(C(=O)N(C)C)cc1 [Compound 34, 4-((2-Methoxy-4-((5-(methylthio)isoindolin-2-yl)methyl)phenoxy)methyl)-N,N-dimethylbenzamide]	< 0.15
COCCN(C)C(=O)c1ccc(COc2ccc(CN3Cc4ccccc4C3)cc2OC)cc1 [Compound 35, 4-((4-(Isoindolin-2-ylmethyl)-2-methoxyphenoxy)methyl)-N-(2-methoxyethyl)-N-methylbenzamide]	< 0.15
